Assay results from US20070275953A1 (priority 2003, published 2007).
Where two headings read alike, the source gives them in different places.

How the values were obtained:
Assay type in all cases: cell-based
[1] = test system: HIV-1 with WT (wild type) RT in TZM-bl cells; assay: Anti-HIV assay on TZM-bl cell line, WT RT
Procedure: (§1) Wurzburg Jurkat T cells (subclone JR) were transfected with 10 μg of the circularly permuted infectious molecular clone HIVNL4-3 (Adachi et al., 1986. J. Virol, 59 (2), p 284-291). Two days later, co-cultivation with SupT1 cells (a human T-cell lymphoma cell line) was initiated to facilitate rapid production of progeny virions. Production of virus was measured by using the Innotest HIV Antigen mAb p24 kit (Innogenetics). At the peak of production cultures were harvested and filtered. The virus stocks were stored at −80° C. until used.
Anti-HIV activity and cytotoxicity of the compounds were tested on the TZM-b1 cell line. The TZM-b1 cell line (Wei et al. 2002. Antimicrob. Agents Chemother. Vol. 46, p 1896-1905) was received from the NIH AIDS Research and Reference Reagent Program. These cells were cultured in complete DMEM medium supplemented with 10% fetal bovine serum (FBS), and 1% Penicillin/Streptomycin. Exponentially growing cells were trypsinized, centrifuged and split twice weekly at 5 10^4 cells/ml.
The anti-HIV assay with TZM-b1 cells is essentially the same as described above with P4 cells. The main difference between the two cell lines is that the TZM-b1 cells express at their surface both the CD4 and CCR5 proteins, acting as receptor and co-receptor for HIV entry, respectively (Wei et al. 2002. Antimicrob. Agents Chemother. Vol. 46, p 1896-1905). This feature makes the cells very sensitive to infection by the virus. The TMZ-b1 cells were infected with equal amount of cell-free virus, corresponding to 10 ng of HIV p24 antigen. This amount is ten times lower than the amount used to infect the P4 cells.

[2] = test system: HIV-1 mutant Cys181RT in P4 cells; assay: Anti-HIV assay on P4 cells, Cys181RT mutant
Excerpt: (§2) In order to introduce mutation(s) at the level of the pol gene coding for the RT in the pNL4-3 plasmid containing the complete viral genome (Adachi et al., 1986. J. Virol., Vol. 59 p 284-291) we used the “Quick change mutagenesis kit” (Stratagene). The following mutations were separately introduced in pNL4-3: L100I, K103N, V108I, Y181C, Y188C, and the double mutations K103N/V108I. These mutations were chosen because of the resistance that they confer to existing NNRTI. The production procedure of the mutant viral stocks is identical to the one described above.
(§3) Anti-HIV activity and cytotoxicity of the compounds were tested on a P4 cell line. The P4 cell line (Clavel & Charneau, 1994. J. Virol., Vol. 68 p 1179-1185) was provided by Dr. François Clavel (Unité de recherche antivirale de l'hôpital Xavier Bichat Paris: Inserm). The P4 cells were cultured in complete DMEM medium supplemented with 10% fetal bovine serum (FBS), 0.5% of Penicillin/Streptomycin and G418 at 0.5 mg/ml. Exponentially growing cells were trypsinized, centrifuged and split twice weekly at 5.10^4 cells/ml.
(§4) The P4 cells are HIV-infectible Hela-CD4 cells that carry the bacterial lacZ gene under the control of the HIV-1 long terminal repeat (LTR). In this cell line, transcription of the LacZ gene is driven by the HIV-1 LTR. As such, the cytoplasmic accumulation of β-galactosidase is strictly dependent on the presence of the HIV transactivator Tat produced during the intracellular viral replication (Clavel & Charneau, 1994. J. Virol., Vol. 68, p. 1179-1185). In other words, in this system, the expression level of the β-galactosidase gene is proportional to the viral replication.
(§5) Briefly, in the anti-HIV assay 100 Ål of P4 cells were plated in 96-well plate at a concentration of 0.4 10^5 cells/ml and incubated at 37° C., 5% CO2. After 48 h, the medium was removed and 100 Ål of the different drugs dilutions were added to the cells. Four hours after the addition of the drugs all cells were infected with equal amount of cell-free virus, corresponding to 100 ng of HIV p24 antigen. After 48 h of incubation at 37° C., 5% CO2, β-galactosidase activity was measured using chlorophenol red-β-D-galactopyranoside assays.
(§6) The absorbance was measured on a Benchmark™ Microplate Reader (Biorad) (λ=570 nm) and compared with 12 cell control replicates (no virus or drug added) and 12 virus control wells (no drug added). Each assay was performed a minimum of three times. The 50% effective concentration (Ec50) was calculated from each dose response curve using the CurveExpert 1.3 software. As Nevirapine activity corresponds to its published values (10-100 nM), the data are consistent with other measures of viral replication.

[3] = test system: HIV-1 with WT (wild type) RT in MT4 cells; assay: Anti-HIV assay on MT4 cell line, WT RT
Procedure: as §1
(§7) Anti-HIV activity of the compounds was tested on MT-4 cell line. The MT-4 cell line (Larder et al. 1989. Sciences, Vol. 243 p 1731) was received from the NIH AIDS Research and Reference Reagent Program. These cells were cultured in RPMI medium supplemented with 10% fetal bovine serum (FBS), and 1% Penicillin/Streptomycin. The cultures were split regularly to keep cells densities between 0.3 to 1.2 10^6 cells/ml.
(§8) The MT-4 cells rapidly die upon infection by HIV. In this system there is an inverse correlation between cells survival and the amount of viral replication.
(§9) Briefly, in the anti-HIV assay exponentially growing MT-4 cells were infected with HIV-1. 100 μl of infected MT-4 cells were seeded in 96-well plate at a concentration of 0.4 10^5 cells/ml, and 100 μl of the different drugs dilutions were added to the cells. After 4 days of incubation at 37° C., 5% CO2, cells survival was measured using MTS (3-(4-5-dimethylthiazol-2-yl)-5-(−(3-carboxymethoxyphenyl)-2-(4-sulfophenyl)-2H-tetrazolium) assays. This compound is reduced by viable cells in a colored soluble formazan salt.
(§10) The absorbance was measured on a Benchmark™ Microplate Reader (Biorad) (λ=490 nm) and compared with 12 cell control replicates (nor virus nor drug added) and 12 virus control wells (no drug added). Each assay was performed a minimum of three times. The 50% effective concentration (EC50) was calculated from each dose response curve using the CurveExpert 1.3 software.

[4] = test system: HIV-1 mutant Cys188RT in MT4 cells; assay: Anti-HIV assay on MT4 cells, Cys188RT mutant
Excerpt: as §2, §7, §8, §9, §10

[5] = test system: HIV-1 mutant Ile100RT in MT4 cells; assay: Anti-HIV assay on MT4 cells, Ile100RT mutant
Excerpt: as §2, §7, §8, §9, §10

[6] = test system: HIV-1 mutant Asn103/Ile108RT in P4 cells; assay: Anti-HIV assay on P4 cells, Asn103/Ile108RT double mutant
Excerpt: as §2, §3, §4, §5, §6

[7] = P4, mutant Cys181RT, read-out: EC50 Cys181RT P4
[8] = Human immunodeficiency virus 1, MT4, read-out: EC50 Cys188RT MT4
[9] = Human immunodeficiency virus 1, read-out: EC50 Cys181RT P4
[10] = Human immunodeficiency virus 1, MT4, read-out: EC50 Ile100RT MT4
[11] = Human immunodeficiency virus 1, read-out: EC50 Asn103/Ile108RT F4
[12] = column head prints F4, double mutant Asn103/Ile108RT, read-out: EC50 Asn103/Ile108RT F4
[13] = MT4, mutant Cys188RT, read-out: EC50 Cys188RT MT4

| Structure (SMILES) | EC50 [1] | EC50 [2, 7] | EC50 ([1]; Human immunodeficiency virus 1) | EC50 ([3]; Human immunodeficiency virus 1) | EC50 [4, 8] | EC50 [2, 9] | EC50 [5, 10] | EC50 [6, 11] | EC50 [6, 12] | EC50 [3] | EC50 [4, 13] | EC50 Ile100RT MT4 ([5]; MT4, mutant Ile100RT) | EC50 ([5]; MT4, mutant Ile100RT, read-out: EC50 Ile100RT MT4) |
| --- | --- | --- | --- | --- | --- | --- | --- | --- | --- | --- | --- | --- | --- |
| CCOC(=O)c1c(OC2CC(C)CC(C)C2)c(CC)c(C)[nH]c1=O (single isomer, unassigned) [Z37inv] | 0.439 µM | 1.97 µM | – | – | – | – | – | – | – | – | – | – | – |
| O=C1Nc2ccc(Cl)cc2[C@@](C#CC2CC2)(C(F)(F)F)O1 [Efavirenz, reference compound] | – | – | < 0.001 µM | < 0.001 µM | 0.001 µM | < 0.001 µM | 0.178 µM | 0.009 µM | – | – | – | – | – |
| Cc1ccnc2c1NC(=O)c1cccnc1N2C1CC1 [Nevirapine, reference compound] | – | – | 0.056 µM | 0.575 µM | > 5 µM | 10 µM | 2.06 µM | 6.25 µM | – | – | – | – | – |
| CCc1c(C)[nH]c(=O)c(CO)c1OC1CC(C)CC(C)C1 (stereo not shown) [Z45inv] | 0.197 µM | 0.496 µM | – | – | – | – | – | – | 19.2 µM | – | – | – | – |
| CCc1c(C)[nH]c(=O)c([N+](=O)[O-])c1OC1CC(C)CC(C)C1 (stereo not shown) [Z91inv, 3-nitro-5-ethyl-6-methyl-4-[(3,5-dimethylcyclohexyl)oxy]pyridine-2(1H)-one] | – | – | < 0.001 µM | < 0.001 µM | 0.043 µM | 0.046 µM | 1.38 µM | 0.18 µM | – | – | – | – | – |
| CCc1c(C)[nH]c(=O)c(CSC(C)=O)c1OC1CC(C)CC(C)C1 (stereo not shown) [Z114] | 0.011 µM | 0.087 µM | – | – | – | – | – | – | 1.93 µM | 0.136 µM | 1.68 µM | Inactive | – |
| CCc1c(C)[nH]c(=O)c(N(C)C)c1OC1CC(C)CC(C)C1 (stereo not shown) [Z150, 3-(dimethylamino)-5-ethyl-6-methyl-4-[(3,5-dimethylcyclohexyl)oxy]pyridine-2(1H)-one] | – | – | < 0.001 µM | < 0.001 µM | 0.006 µM | 0.061 µM | 0.087 µM | 0.027 µM | – | – | – | – | – |
| CCc1c(C)[nH]c(=O)c(CN=[N+]=[N-])c1OC1CC(C)CC(C)C1 (stereo not shown) [Z153] | < 0.001 µM | 0.108 µM | – | – | – | – | – | – | 0.07 µM | – | 0.033 µM | – | 0.187 µM |
| CCc1c(C)[nH]c(=O)c(C)c1OC1CC(C)CC(C)C1 (stereo not shown) [Z154] | 0.003 µM | – | – | – | – | – | – | – | 0.088 µM | < 0.001 µM | – | – | – |
